Data published in patent US8748417B2, “Amino-pyrrolidine-azetidine diamides as monoacylglycerol lipase inhibitors” (Janssen Pharmaceutica, NV, priority 2010, dated 2014).

Legend:
[1] = test system: MGL (rat brain homogenate); test: 2-AG accumulation assay in rat brain homogenate; format: biochemical; conditions: compound 1 μM, percent of vehicle 2-AG accumulation
Experimental: After a 15-min incubation time at 37° C., CaCl2 (final concentration=10 mM) was added and then incubated for 15 min at 37° C. in a total volume of 5 mL. The reactions were stopped with 6 mL organic solvent extraction solution of 2:1 chloroform/methanol. Accumulated 2-AG in the organic phase was measured by a HPLC/MS method, according to the following equation: percent vehicle=(2-AG accumulation in the presence of compound/2-AG accumulation in vehicle)×100.

[2] = molecular target: T1, purified wild type MGL (wt-MGLL 6H-11-313) (Homo sapiens, UniProt Q99685); test: MGL enzyme activity assay (4MU-B cleavage), wild type MGL; format: biochemical; conditions: wild type MGL 5 nM, 4MU-B 10 μM, 37° C.; read-out: MGL wild type inh IC50
T1 construct: purified wild type MGL (wt-MGLL 6H-11-313)
T1 sequence (Q99685 1-303): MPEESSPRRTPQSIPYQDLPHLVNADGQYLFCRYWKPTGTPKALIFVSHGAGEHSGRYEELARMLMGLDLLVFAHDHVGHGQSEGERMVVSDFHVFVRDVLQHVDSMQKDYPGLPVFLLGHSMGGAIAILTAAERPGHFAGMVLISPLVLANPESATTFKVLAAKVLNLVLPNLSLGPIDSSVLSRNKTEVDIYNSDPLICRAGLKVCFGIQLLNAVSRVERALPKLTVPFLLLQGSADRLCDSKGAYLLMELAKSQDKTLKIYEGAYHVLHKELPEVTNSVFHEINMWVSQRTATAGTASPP
Experimental: All rate-based assays were performed in black 384-well polypropylene PCR microplates (Abgene) in a total volume of 30 μL. Substrate 4-methylumbelliferyl butyrate (4MU-B; Sigma) and either purified mutant MGL (mut-MGLL 11-313 L179S L186S) or purified wild type MGL (wt-MGLL 6H-11-313) were diluted separately into 20 mM PIPES buffer (pH=7.0), containing 150 mM NaCl and 0.001% Tween 20. Compounds of Formula (I) were pre-dispensed (50 nL) into the assay plate using a Cartesian Hummingbird prior to adding 4MU-B (25 μL of 1.2× solution to a final concentration of 10 μM) followed by enzyme (5 μL of a 6× solution to a final concentration of 5 nM) to initiate the reaction. Final compound concentrations ranged from 17 to 0.0003 μM. The fluorescence change due to 4MU-B cleavage was monitored with excitation and emission wavelengths of 335 and 440 nm, respectively, and a bandwidth of 10 nm (Safire^2, Tecan) at 37° C. for 5 min.
The IC50 values for the following compounds were determined using Microsoft Office Excel from a fit of the equation to the concentration-response plot of the fractional activity as a function of inhibitor concentration.

Compound | IC50 [2] [µM] | Rat Brain 2AG % VehCntrl (%) @1 μM [1] [%]
O=C(c1cscn1)N1CC[C@H](NC2CN(C(=O)c3sc4cc(-c5cccc(C(F)(F)F)c5)ccc4c3Cl)C2)C1 [Cpd 149, (3S)-N-[1-({3-Chloro-6-[3-(trifluoromethyl)phenyl]-1-benzothiophen-2-yl}carbonyl)azetidin-3-yl]-1-(1,3-thiazol-4-ylcarbonyl)pyrrolidin-3-amine] | < 0.005 | 811
O=C(c1cc2cc(-c3cccc(C(F)(F)F)c3)ccc2s1)N1CC(N[C@H]2CCN(C(=O)c3nccs3)C2)C1 [Cpd 132, (3S)-1-(1,3-Thiazol-2-ylcarbonyl)-N-[1-({5-[3-(trifluoromethyl)phenyl]-1-benzothiophen-2-yl}carbonyl)azetidin-3-yl]pyrrolidin-3-amine] | < 0.005 | 1233
O=C(c1nccs1)N1CC[C@H](NC2CN(C(=O)c3sc4cc(Cl)ccc4c3C(F)(F)F)C2)C1 [Cpd 183, (3S)-N-(1-{[6-Chloro-3-(trifluoromethyl)-1-benzothiophen-2-yl]carbonyl}azetidin-3-yl)-1-(1,3-thiazol-2-ylcarbonyl)pyrrolidin-3-amine] | 0.0231 | 316
O=C(c1cscn1)N1CC[C@H](NC2CN(C(=O)c3cc4cc(-c5ccccc5)ccc4s3)C2)C1 [Cpd 131, (3S)-N-{1-[(5-Phenyl-1-benzothiophen-2-yl)carbonyl]azetidin-3-yl}-1-(1,3-thiazol-4-ylcarbonyl)pyrrolidin-3-amine] | < 0.005 | 385
O=C(c1ccccc1)N1CC[C@H](NC2CN(C(=O)c3sc4ccc(-c5ccccc5)cc4c3F)C2)C1 [Cpd 173, (3S)-N-{1-[(3-Fluoro-5-phenyl-1-benzothiophen-2-yl)carbonyl]azetidin-3-yl}-1-(phenylcarbonyl)pyrrolidin-3-amine] | < 0.005 | 628
O=C(c1ccc(Cc2ccc(C(F)(F)F)cc2)cc1)N1CC(N[C@H]2CCN(C(=O)c3cscn3)C2)C1 [Cpd 144, (3S)-1-(1,3-Thiazol-4-ylcarbonyl)-N-[1-({4-[4-(trifluoromethyl)benzyl]phenyl}carbonyl)azetidin-3-yl]pyrrolidin-3-amine] | < 0.005 | 992
O=C(c1nccs1)N1CC[C@H](NC2CN(C(=O)c3sc4cc(Br)ccc4c3Cl)C2)C1 [Cpd 140, (3S)-N-{1-[(6-Bromo-3-chloro-1-benzothiophen-2-yl)carbonyl]azetidin-3-yl}-1-(1,3-thiazol-2-ylcarbonyl)pyrrolidin-3-amine] | 0.0124 | 742
O=C(c1cscn1)N1CC[C@H](NC2CN(C(=O)c3cc4cc(-c5cccc(C(F)(F)F)c5)ccc4s3)C2)C1 [Cpd 130, (3S)-1-(1,3-Thiazol-4-ylcarbonyl)-N-[1-({5-[3-(trifluoromethyl)phenyl]-1-benzothiophen-2-yl}carbonyl)azetidin-3-yl]pyrrolidin-3-amine] | < 0.005 | 747
O=C(c1ccc2c(c1)c(F)cn2-c1ccc(F)cc1)N1CC(N[C@H]2CCN(C(=O)c3ccccc3)C2)C1 [Cpd 142, (3S)-N-(1-{[3-Fluoro-1-(4-fluorophenyl)-1H-indol-5-yl]carbonyl}azetidin-3-yl)-1-(phenylcarbonyl)pyrrolidin-3-amine] | 0.0565 | 247
Cc1c(C(=O)N2CC(N[C@H]3CCN(C(=O)c4ccccc4)C3)C2)sc2ccc(-c3cccc(F)c3)cc12 [Cpd 93, (3S)-N-(1-{[5-(3-Fluorophenyl)-3-methyl-1-benzothiophen-2-yl]carbonyl}azetidin-3-yl)-1-(phenylcarbonyl)pyrrolidin-3-amine] | < 0.005 | 963
O=C(c1nccs1)N1CC[C@H](NC2CN(C(=O)c3sc4cc(C(F)(F)F)ccc4c3Cl)C2)C1 [Cpd 167, (3S)-N-(1-{[3-Chloro-6-(trifluoromethyl)-1-benzothiophen-2-yl]carbonyl}azetidin-3-yl)-1-(1,3-thiazol-2-ylcarbonyl)pyrrolidin-3-amine] | 0.011 | 695
O=C(c1ccccc1)N1CC[C@H](NC2CN(C(=O)c3sc4ccc(Cl)cc4c3C(F)(F)F)C2)C1 [Cpd 180, (3S)-N-(1-{[5-Chloro-3-(trifluoromethyl)-1-benzothiophen-2-yl]carbonyl}azetidin-3-yl)-1-(phenylcarbonyl)pyrrolidin-3-amine] | 0.0427 | 333
Cc1c(C(=O)N2CC(N[C@H]3CCN(C(=O)c4cscn4)C3)C2)sc2ccc(Cl)cc12 [Cpd 85, (3S)-N-{1-[(5-Chloro-3-methyl-1-benzothiophen-2-yl)carbonyl]azetidin-3-yl}-1-(1,3-thiazol-4-ylcarbonyl)pyrrolidin-3-amine] | 0.0482 | 335
O=C(c1ccccc1)N1CC[C@H](NC2CN(C(=O)c3sc4cc(-c5ccc(C(F)(F)F)cc5)ccc4c3F)C2)C1 [Cpd 179, (3S)-N-[1-({3-Fluoro-6-[4-(trifluoromethyl)phenyl]-1-benzothiophen-2-yl}carbonyl)azetidin-3-yl]-1-(phenylcarbonyl)pyrrolidin-3-amine] | 0.012 | 259
O=C(c1ccc(Cc2cccc(C(F)(F)F)c2)cc1)N1CC(N[C@H]2CCN(C(=O)c3ccccc3)C2)C1 [Cpd 126, (3S)-1-(Phenylcarbonyl)-N-[1-({4-[3-(trifluoromethyl)benzyl]phenyl}carbonyl)azetidin-3-yl]pyrrolidin-3-amine] | < 0.005 | 715

Continued, in another order:

IC50 [2] [µM] | Compound | Rat Brain 2AG % VehCntrl (%) @1 μM [1] [%]
< 0.005 | O=C(c1cc2cc(-c3ccccc3)ccc2s1)N1CC(N[C@H]2CCN(C(=O)c3nccs3)C2)C1 [Cpd 129, (3S)-N-{1-[(5-Phenyl-1-benzothiophen-2-yl)carbonyl]azetidin-3-yl}-1-(1,3-thiazol-2-ylcarbonyl)pyrrolidin-3-amine] | 590
< 0.005 | O=C(c1nccs1)N1CC[C@H](NC2CN(C(=O)c3ccc(-c4cccc(C(F)(F)F)c4)cc3F)C2)C1 [Cpd 116, (3S)-N-(1-{[3-Fluoro-3′-(trifluoromethyl)biphenyl-4-yl]carbonyl}azetidin-3-yl)-1-(1,3-thiazol-2-ylcarbonyl)pyrrolidin-3-amine] | 733
0.0139 | Cn1cc(-c2ccccc2)c2ccc(C(=O)N3CC(N[C@H]4CCN(C(=O)c5nccs5)C4)C3)cc21 [Cpd 169, (3S)-N-{1-[(1-Methyl-3-phenyl-1H-indol-6-yl)carbonyl]azetidin-3-yl}-1-(1,3-thiazol-2-ylcarbonyl)pyrrolidin-3-amine] | 482
< 0.005 | Cc1c(C(=O)N2CC(N[C@H]3CCN(C(=O)c4nccs4)C3)C2)sc2ccc(-c3ccccc3)cc12 [Cpd 92, (3S)-N-{1-[(3-Methyl-5-phenyl-1-benzothiophen-2-yl)carbonyl]azetidin-3-yl}-1-(1,3-thiazol-2-ylcarbonyl)pyrrolidin-3-amine] | 624
< 0.005 | O=C(c1ccc(-c2cccc(C(F)(F)F)c2)cc1)N1CC(N[C@H]2CCN(C(=O)c3nccs3)C2)C1 [Cpd 113, (3S)-1-(1,3-Thiazol-2-ylcarbonyl)-N-(1-{[3′-(trifluoromethyl)biphenyl-4-yl]carbonyl}azetidin-3-yl)pyrrolidin-3-amine] | 832
< 0.005 | Cn1cc(-c2ccc(F)cc2)c2ccc(C(=O)N3CC(N[C@H]4CCN(C(=O)c5nccs5)C4)C3)cc21 [Cpd 192, (3S)-N-(1-{[3-(4-Fluorophenyl)-1-methyl-1H-indol-6-yl]carbonyl}azetidin-3-yl)-1-(1,3-thiazol-2-ylcarbonyl)pyrrolidin-3-amine] | 374
0.0449 | Cn1cc(-c2ccc(F)cc2)c2ccc(C(=O)N3CC(N[C@H]4CCN(C(=O)c5ccccc5)C4)C3)cc21 [Cpd 194, (3S)-N-(1-{[3-(4-Fluorophenyl)-1-methyl-1H-indol-6-yl]carbonyl}azetidin-3-yl)-1-(phenylcarbonyl)pyrrolidin-3-amine] | 178
< 0.005 | Cc1cc(-c2cccc(C(F)(F)F)c2)ccc1C(=O)N1CC(N[C@H]2CCN(C(=O)c3nccs3)C2)C1 [Cpd 117, (3S)-N-(1-{[3-Methyl-3′-(trifluoromethyl)biphenyl-4-yl]carbonyl}azetidin-3-yl)-1-(1,3-thiazol-2-ylcarbonyl)pyrrolidin-3-amine] | 400
